From patent publication US11576897B2, “Therapeutic agent for non-motor symptoms associated with Parkinson's disease” (priority 2017, dated 2023) come the findings set out here.

In general, Ki refers to a dissociation constant, usually derived from enzyme kinetics or from competition with a known ligand. Usually IC50 stands for the concentration needed to halve the response being measured.

Counter-ions that a name gives are not always drawn. Like-named read-outs stand apart in the source and are kept apart here. Marks after values point to notes of the source that are not given here. Where only a bound is given, the exact number is not on record here.

One experiment has as its target human 5-HT2A receptor (Homo sapiens (Human), UniProt P28223). Kind of experiment: biochemical. The experiment is classed as binding.
In experiment [1] the target is human serotonin transporter (SERT) (Homo sapiens (Human), UniProt P31645). Kind of experiment: Human serotonin transporter (SERT) binding test.
The target in experiment [2] is serotonin 5-HT2A receptor (Rattus norvegicus (Rat), UniProt P14842). Description: Rat tryptamine-induced forelimb clonic convulsion model. The experiment is classed as in vivo. To be noted: orally or subcutaneously 60 minutes before tryptamine 25 mg/kg intravenously, SD-male rats.
Description: Test 2: Rat Tryptamine-Induced Forelimb Clonic Convulsion Model for Evaluation of In Vivo Serotonin 5-HT2A Receptor Antagonism
Evaluation was conducted in a rodent tryptamine-induced forelimb clonic convulsion model which has been known as one of the methods for assessing the serotonin 5-HT2A receptor antagonism in vivo.
Seven-week-old SD-male rats were used. A dose solution for a test compound was prepared with 0.5% methylcellulose solution or saline for a solvent. A test compound was used in the form of a dose solution obtained by mixing with 0.5% methylcellulose solution to get cloudy (for oral administration) or dissolving in saline (for subcutaneous administration). Tryptamine was used and dissolved in saline as a substance inducing clonic convulsion.
A dose solution of a test compound or a solvent only was administered orally or subcutaneously to rats at the start of the test, and after 60 minutes of the administration, a saline solution containing tryptamine 25 mg/kg was administered intravenously to rats. Rats were transferred to an observation cage right after the administration of tryptamine, and their forelimb clonic convulsion was evaluated for 3 minutes.
The average inhibition ratio of each individual calculated from the following equation was deemed to be the inhibition ratio of each administration group. Inhibition ratio of each individual=(Average score of the solvent-administered group−Score of each individual)/Average score of the solvent-administered group×100
Statistical analysis of the test results was conducted by the following procedures with Stat Preclinica (Takumi Information Technology):
1) Jonckheere-Terpstra test was conducted in the solvent-administered group and test compound-administered group with the forelimb clonic convulsion score as indicator. […] 2) Non-parametric Dunnett's multiple comparison (Joint Ranking)-measured value was conducted between the solvent-administered group and test compound-administered group with the forelimb clonic convulsion score as indicator. […]
For a further experiment, the target named is human D2L receptor (Homo sapiens (Human), UniProt P14416). Kind of experiment: Dopamine D2L receptor binding test.
Chain of human D2L receptor (P14416 whole entry): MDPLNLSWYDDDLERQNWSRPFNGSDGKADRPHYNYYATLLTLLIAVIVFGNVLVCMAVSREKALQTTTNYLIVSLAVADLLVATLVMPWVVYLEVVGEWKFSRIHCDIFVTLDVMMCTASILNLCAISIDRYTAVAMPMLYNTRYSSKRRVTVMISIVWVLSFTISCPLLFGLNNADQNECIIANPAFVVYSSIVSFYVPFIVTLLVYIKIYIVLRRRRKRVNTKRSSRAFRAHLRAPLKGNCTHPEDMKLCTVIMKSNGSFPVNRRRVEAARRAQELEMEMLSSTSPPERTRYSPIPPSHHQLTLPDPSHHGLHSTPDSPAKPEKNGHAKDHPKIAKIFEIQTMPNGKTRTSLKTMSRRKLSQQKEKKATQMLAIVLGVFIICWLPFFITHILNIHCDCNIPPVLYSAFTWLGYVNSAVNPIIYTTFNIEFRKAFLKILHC
In another experiment the target is human 5-HT2C receptor (Homo sapiens (Human), UniProt P28335).
Chain of human 5-HT2C receptor (P28335 whole entry, looked up): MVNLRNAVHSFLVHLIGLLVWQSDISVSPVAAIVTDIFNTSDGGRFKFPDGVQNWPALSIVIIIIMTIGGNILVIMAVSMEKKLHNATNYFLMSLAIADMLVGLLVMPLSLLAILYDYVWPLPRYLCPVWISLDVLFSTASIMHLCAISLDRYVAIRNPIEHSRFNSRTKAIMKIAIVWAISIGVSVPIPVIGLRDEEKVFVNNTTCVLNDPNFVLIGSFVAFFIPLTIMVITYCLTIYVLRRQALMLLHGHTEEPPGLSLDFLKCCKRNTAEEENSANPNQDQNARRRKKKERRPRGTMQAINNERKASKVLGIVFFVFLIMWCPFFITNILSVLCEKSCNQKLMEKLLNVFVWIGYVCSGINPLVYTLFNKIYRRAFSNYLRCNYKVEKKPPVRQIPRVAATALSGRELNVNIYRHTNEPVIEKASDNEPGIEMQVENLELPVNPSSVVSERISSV
The mark [3] stands for this setting: [3H]-ketanserin, human 5-HT2A receptor-expressed CHO cell membrane, read-out: 5-HT2A receptor binding inhibition constant Ki.
Where [4] appears, read: [3H]-citalopram, h-SERT/CHO cell membrane, read-out: h-SERT binding inhibition constant Ki.
Setting [5] is: read-out: 5-HT2A receptor binding inhibition constant Ki.

As to `CNCc1cc(OCc2cc(F)ccc2F)n(CC2CCCC2)n1.Cl` [Example 147, 1-{1-(cyclopentylmethyl)-5-[(2,5-difluorobenzyl)oxy]-1H-pyrazol-3-yl}-N-methylmethanamine], the Ki on human 5-HT2A receptor (setting [3]) was 2.2 nM; in experiment [1] (setting [4]), 0.61 nM. Besides, the Inhibition ratio in experiment [2] (dose 1 mg/kg) is listed as 46%; in experiment [2] (dose 3 mg/kg) it was 46%; in experiment [2] (dose 10 mg/kg), 71%**.
Consider `CNCc1cc(OCc2cc(Cl)ccc2F)n(CCC(C)(C)OC)n1` [Example 275, 1-{5-[(5-chloro-2-fluorobenzyl)oxy]-1-(3-methoxy-3-methylbutyl)-1H-pyrazol-3-yl}-N-methylmethanamine], for which the Ki at human 5-HT2A receptor (setting [3]) is 5.9 nM. This molecule also gave an IC50 at human D2L receptor above 1000 nM.
Regarding `CNCc1cc(OCc2ccccc2)n(C(C)C2CCCCC2)n1` (stereo not shown) [Example 292, 1-[5-(benzyloxy)-1-(1-cyclohexylethyl)-1H-pyrazol-3-yl]-N-methylmethanamine], the Ki worked out at 1.2 nM at human 5-HT2A receptor (setting [3]) and 0.96 nM in experiment [1] (setting [4]).
For `CNCc1cc(OCc2ccccc2F)n(C(C)C2CCCCC2)n1` (stereo not shown) [Example 293, 1-{1-(1-cyclohexylethyl)-5-[(2-fluorobenzyl)oxy]-1H-pyrazol-3-yl}-N-methylmethanamine], the values for the Ki (on human 5-HT2A receptor (setting [3]); in experiment [1] (setting [4])) were 1.1 nM and 0.67 nM, respectively.
For `CNCc1cc(OCc2ccc(F)cc2)n(C(C)C2CCCCC2)n1` (stereo not shown) [Example 295, 1-{1-(1-cyclohexylethyl)-5-[(4-fluorobenzyl)oxy]-1H-pyrazol-3-yl}-N-methylmethanamine], in that order: 0.74 nM and 0.95 nM.
With `CNCc1cc(OCc2ccccc2Cl)n(C(C)C2CCCCC2)n1` (stereo not shown) [Example 296, 1-{5-[(2-chlorobenzyl)oxy]-1-(1-cyclohexylethyl)-1H-pyrazol-3-yl}-N-methylmethanamine], the Ki at human 5-HT2A receptor (setting [3]) stood at 2.1 nM; in experiment [1], 0.91 nM; at human 5-HT2C receptor, 6.2 nM.
Turning to `CNCc1cc(OCc2ccccc2C)n(C(C)C2CCCCC2)n1` (stereo not shown) [Example 298, 1-{1-(1-cyclohexylethyl)-5-[(2-methylbenzyl)oxy]-1H-pyrazol-3-yl}-N-methylmethanamine], the figures for the Ki (on human 5-HT2A receptor (setting [3]); in experiment [1] (setting [4])) were 3.3 nM and 0.56 nM, respectively.
The like results for `CNCc1cc(OCc2cccc(C)c2)n(C(C)C2CCCCC2)n1` (stereo not shown) [Example 299, 1-{1-(1-cyclohexylethyl)-5-[(3-methylbenzyl)oxy]-1H-pyrazol-3-yl}-N-methylmethanamine] were, in that order, 5.6 nM and 1.4 nM.
With `CNCc1cc(OCc2ccc(F)cc2F)n(C(C)C2CCCCC2)n1` (stereo not shown) [Example 300, 1-{1-(1-cyclohexylethyl)-5-[(2,4-difluorobenzyl)oxy]-1H-pyrazol-3-yl}-N-methylmethanamine], the Ki at human 5-HT2A receptor (setting [3]) stood at 0.57 nM; in experiment [1] (setting [4]) it was 1.8 nM.
Take `CNCc1cc(OCc2ccc(F)cc2Cl)n(C(C)C2CCCCC2)n1` (stereo not shown) [Example 301, 1-{5-[(2-chloro-4-fluorobenzyl)oxy]-1-(1-cyclohexylethyl)-1H-pyrazol-3-yl}-N-methylmethanamine]: the Ki at human 5-HT2A receptor (setting [3]) turned out to be 0.88 nM; in experiment [1] (setting [4]) it was 1.3 nM.
The like results for `CNCc1cc(OCc2ccc(F)cc2C)n(C(C)C2CCCCC2)n1` (stereo not shown) [Example 302, 1-{1-(1-cyclohexylethyl)-5-[(4-fluoro-2-methylbenzyl)oxy]-1H-pyrazol-3-yl}-N-methylmethanamine] were, in that order, 0.94 nM and 1.4 nM.
The like results for `CNCc1cc(OCc2cc(F)ccc2F)n(C(C)C2CCCCC2)n1` (stereo not shown) [Example 303, 1-{1-(1-cyclohexylethyl)-5-[(2,5-difluorobenzyl)oxy]-1H-pyrazol-3-yl}-N-methylmethanamine] were, in that order, 1.8 nM and 0.46 nM.
As for `CNCc1cc(OCc2cc(Cl)ccc2F)n(C(C)C2CCCCC2)n1` (stereo not shown) [Example 304, 1-{5-[(5-chloro-2-fluorobenzyl)oxy]-1-(1-cyclohexylethyl)-1H-pyrazol-3-yl}-N-methylmethanamine], the Ki is 1.4 nM on human 5-HT2A receptor (setting [5]) and 1.3 nM in experiment [1] (setting [4]).
For `CNCc1cc(OCc2cc(C)ccc2F)n(C(C)C2CCCCC2)n1` (stereo not shown) [Example 305, 1-{1-(1-cyclohexylethyl)-5-[(2-fluoro-5-methylbenzyl)oxy]-1H-pyrazol-3-yl}-N-methylmethanamine], in that order: 2.5 nM and 2 nM.
For `CNCc1cc(OCc2ccccc2)n(CC2(C)CCCCC2)n1` [Example 331, 1-{5-(benzyloxy)-1-[(1-methylcyclohexyl)methyl]-1H-pyrazol-3-yl}-N-methylmethanamine], the Ki at human 5-HT2A receptor (setting [3]) was determined as 2.8 nM; in experiment [1] (setting [4]), 1.3 nM.
`CNCc1nn(CC2CCCCC2)c(OCc2cc(F)ccc2F)c1F` [Example 351]: the figures for the Ki (at human 5-HT2A receptor (setting [3]); in experiment [1] (setting [4])) were 15 nM and 0.98 nM, respectively.
`[2H]C([2H])(NC)c1cc(OCc2ccccc2)n(CC2CCCCC2)n1` [Example 492, 1-[5-(Benzyloxy)-1-(cyclohexylmethyl)-1H-pyrazol-3-yl]-N-methyl(^2H2)methanamine]: the results for the Ki (on human 5-HT2A receptor; in experiment [1]; on human 5-HT2C receptor) were 2.9 nM, 1.4 nM and 6.8 nM, respectively.
For `[2H]C([2H])([2H])NC([2H])([2H])c1cc(OCc2ccccc2)n(CC2CCCCC2)n1` [Example 493, 1-[5-(Benzyloxy)-1-(cyclohexylmethyl)-1H-pyrazol-3-yl]-N-(^2H3)methyl(^2H2) methanamine], in that order: 2.3 nM, 1.1 nM and 7.2 nM.
The like results for `[2H]C([2H])([2H])NCc1cc(OCc2ccccc2)n(CC2CCCCC2)n1` [Example 494, 1-[5-(Benzyloxy)-1-(cyclohexylmethyl)-1H-pyrazol-3-yl]-N-(^2H3)methylmethanamine] were, in that order, 3.6 nM, 1.1 nM and 7.1 nM.
On to `[2H]C([2H])(Oc1cc(CNC)nn1CC1CCCC1)c1cc(F)ccc1F` [Example 495, 1-[1-(Cyclopentylmethyl)-5-{[(2,5-difluorophenyl) (^2H2)methyl]oxy}-1H-pyrazol-3-yl]-N-methylmethanamine Hydrochloride], for which the Ki at human 5-HT2A receptor (setting [3]) stood at 2 nM; in experiment [1] it was 0.24 nM; on human 5-HT2C receptor, 2.5 nM.
For `Cl.[2H]C([2H])(Oc1cc(CNC)nn1CC1CCCC1)c1cc(Cl)ccc1F` [Example 496, 1-[5-{[(5-Chloro-2-fluorophenyl) (^2H2)methyl]oxy}-1-(cyclopentylmethyl)-1H-pyrazol-3-yl]-N-methylmethanamine Hydrochloride], the Ki amounted to 1.7 nM at human 5-HT2A receptor, 2 nM in experiment [1] and 1.1 nM on human 5-HT2C receptor.
Molecule `CNCc1cc(OCc2cc(F)ccc2F)n(CCC(C)(C)C)n1` [Example 500, 1-{5-[(2,5-Difluorobenzyl)oxy]-1-(3,3-dimethylbutyl)-1H-pyrazol-3-yl}-N-methylmethanamine Monophosphate] registered an IC50 at human D2L receptor above 1000 nM.
Still for that read-out and setting: under `CNCc1cc(OCc2cc(F)ccc2F)n(CC(C)(C)C)n1` [Example 504, 1-{5-[(2,5-Difluorobenzyl)oxy]-1-(2,2-dimethylpropyl)-1H-pyrazol-3-yl}-N-methylmethanamine monophosphate dihydrate] stands above 1000 nM.
Take `CNCc1cc(OCc2cccc(Cl)c2)n(CC2OC3CCC2CC3)n1` (stereo not shown) [Example 508, 1-{5-[(3-chlorobenzyl)oxy]-1-(2-oxabicyclo[2.2.2]oct-3-ylmethyl)-1H-pyrazol-3-yl}-N-methylmethanamine]: the figures for the Ki (on human 5-HT2A receptor (setting [3]); in experiment [1] (setting [4])) were 9.4 nM and 8.1 nM, respectively.
